Assay results as given in patent publication US20240041975A1, “ANTICANCER PEPTIDE AND USE THEREOF FOR INHIBITING CANCER CELL VIABILITY” (NATIONAL TSING HUA UNIVERSITY, priority 2022, published 2024).

Experiments:
[1] = system: Human non-small cell lung cancer line A549; type: cell-based; settings: for IC50: 24 h
Protocol: (§1) Human non-small cell lung cancer line A549, PC9, and H1975 (Osimertinib sensitive; Gefitinib toleran; belonged to T790M mutations), oral squamous cell carcinoma cell line OECM-1 were cultured in RPMI medium supplemented with 10% fetal bovine serum (FBS) and antibiotic. Human oral squamous cell carcinoma cell line C9 and human diploid fibroblast (HFW) were cultured in DMEM medium supplemented with 10% fetal bovine serum (FBS) and antibiotic. Cells were cultured in a humidified incubator containing 5% CO2 at 37° C.
(§2) The cytotoxicity of cancer cells via administrating the peptides were measured by the MTT assay. All cancer cell lines were seeded in a 96-well plate at a density of 5×10^4 cells per well and incubated for 24 hr. After the medium was removed, using the anti-cancer peptides ranged from 50 μM to 0.78 μM for treatment, diluted in the growth medium, and administered 24 hr. The media was then removed, determined cell viability by incubated for 3 hours at 37 C with the addition of 100 μL Thiazolyl Blue Tetrazolium Bromide (MTT 0.5 mg/ml in PBS; M2128, Sigma-Aldrich) diluted by ratio 1:9 in the growth medium. Next, the medium with MTT solution was removed, added 100 μl Dimethyl Sulfoxide (DMSO, D4540, Sigma-Aldrich) for dissolving the formazan crystal. Cell survival rate was calculated by measuring the absorbance at 570 nm using a microplate reader (Sunrise TM, TECAN, Switzerland). Medium without peptide and mixed with H2O2 represented positive and negative control, respectively. The experiments were repeated at least three times. Cell Viability percentage was calculated as follows: […]

[2] = system: human lung cancer cell/cell line and oral squamous cell carcinoma cell/cell line; assay: MTT assay, overall anticancer spectrum; type: cell-based; settings: for efficiency to the human lung cancer cell line: human lung cancer cell lines, FIG. 1A-1C
Protocol: as §1, §2

[3] = system: Human non-small cell lung cancer line H1975; assay: MTT assay cytotoxicity, H1975; type: cell-based; settings: 24 hr treatment, read-out: anticancer activity Human non-small cell lung cancer line H1975
Protocol: as §1, §2

[4] = MTT assay cell cytotoxicity, normal cell HFW; type: cell-based; settings: human, human diploid fibroblast (HFW) cells, 24 hr treatment
Protocol: as §1, §2

[5] = system: oral squamous cell carcinoma cell line OECM-1; assay: MTT assay cytotoxicity, OECM-1; type: cell-based; settings: 24 hr treatment, read-out: anticancer activity oral squamous cell carcinoma cell line OECM-1
Protocol: as §1, §2

[6] = system: Human oral squamous cell carcinoma cell line C9; assay: MTT assay cytotoxicity, C9; type: cell-based; settings: for activity against oral squamous cell carcinoma cell line C9 (in words): FIG. 1E; for IC50: MTT, 24 hr treatment, read-out: anticancer activity oral squamous cell carcinoma cell line C9
Protocol: as §1, §2

[7] = system: Human non-small cell lung cancer line PC9; assay: MTT assay cytotoxicity, PC9; type: cell-based; settings: 24 hr treatment, read-out: anticancer activity Human non-small cell lung cancer line PC9
Protocol: as §1, §2

[8] = system: Human non-small cell lung cancer cell A549; assay: ROS release (DCFDA assay); type: cell-based; settings: 4×IC50 (6.452 μM); 120 minutes
Protocol: FIG. 6 depict that release of ROS from cancer cells were administrated with the peptide. Human non-small cell lung cancer cell A549 administrated with 6.452 μM (4×IC50) of K1R12-AGP-RW for 120 min. The cells of control group were treated with RPMI-1640 without phenol red. Data are presented as means ±SEM, **p<0.05, versus the control group. Data of FIG. 6 were analyzed by Student's t-test.
The 2′,7′-dichlorofluorescin diacetate (DCFDA) intracellular ROS detection assay kit from Abcam (UK, ab113851) was used for measuring ROS release. Cells were seeded in a 96 well black clear bottom plate with 4×10^4 per well, culture 24 hours. Remove medium and washed once in pre-warm 1× PBS with 100 μl per well. Furthermore, cells were treated with 25 μM DCFDA in 1× buffer solution incubated for 120 minutes. Washed again with a buffer solution of 100 μL/well, before adding the 4×IC50 K1R12-AGP-RW dissolved in RPMI without phenol red, and incubated 60,120 and 240 minutes. Cells incubated with RPMI without phenol red were used as a negative control, and the positive control was tertbutyl hydroperoxide (TBHP). Using a fluorescence plate reader (VICTOR3, PerkinElmer, USA) determined at an excitation wavelength of 485 nm and an emission wavelength of 535 nm.

[9] = system: Human non-small cell lung cancer cell A549; assay: HMGB1 secretion by western blot; type: cell-based; settings: 4×IC50 (6.452 μM)
Protocol: FIG. 3 depict that the release level of HMGB1 was analyzed by Western Blot. Human non-small cell lung cancer cell A549 administrated with 6.452 μM (4×IC50) of K1R12-AGP-RW for different time period (60 min, 120 min, 240 min), the HMGB1 release form lysate (L) to the supernatant (S). A549 treated with medium without serum as control group.
In one embodiment, cancer cells were seeded with 5×10^5 cells/well in 6-cm polystyrene in complete medium and allowed to adhere 24 hr. Cells were treated with K1R12-AGP-IR, K1R12-AGP-RW, K1R12-AGP-RI at 4×IC50 dilution in medium without serum and incubated at 37° C. for different time points (60 min,120 min,240 min). RPMI medium without peptide treated for 24 hr which was used as a negative control. Supernatants (S) were collected and centrifuged at 1,500 rcf for 5 minutes. Cell lysates (L) use 500 μL Trypsin-EDTA harvested after centrifuged at 750 g for 5 minutes and washing lysate twice with PBS. And addition 150 μL RIPA and protease inhibitor blended buffer, then centrifugation same condition with supernatant(S). Sonication with 5 cycle number, time on or off 30 sec, and centrifugation for 10 minutes, 1400 g at 4° C., thereafter lysed using a 6× Sample buffer, 0.1M DTT (Sigma), and water. Protein concentrations of cell extracts were determined by Bradford reagent. Both supernatants and lysate were boiled in 80° C. 10 minutes and resolved by 12% sodium dodecyl sulfate-polyacrylamide gel electrophoresis (SDS-PAGE), and then electro transferred to a polyvinylidene difluoride (PVDF) membrane (Millipore). The membrane was blocked in 5% skimmed milk and incubated with the HMGB1 antibody (rabbit, polyclonal, Abcam ab 18256). The membrane was then rinsed several times with TB ST, incubated with horseradish peroxidase (HRP)-conjugated secondary antibody (Abcam ab6721). The signals were visualized by enhanced chemiluminescence (ECL) and recorded by a detected system (Image Quant LAS 4000mini).

[10] = system: Human non-small cell lung cancer cell A549; assay: Extracellular cytochrome c release (ELISA); type: cell-based; settings: 4×IC50 (6.452 μM)
Protocol: FIG. 5 depict that release of mitochondria DAMPs Cytochrome c was detected by Elisa kit. Human non-small cell lung cancer cell A549 administrated with 6.452 μM (4×IC50) of K1R12-AGP-RW for different time period (30 min, 60 min, 90 min, 120 min, […]). Data are presented as means ±SEM, ***p<0.005, **p<0.01, versus the control group.
The ELISA kit for detection of cytochrome c was obtained from the R&D System (Minneapolis, MN, USA). Before the experiment, prepare a buffer solution or reagent from the kit. Seed cancer cells 1×10^5 in 96 well incubated 24 hours. After 24 hours, substitute with 4×IC50 K1R12-AGP-RW dilutions in medium, and incubate designated time points (30 min, 60 min, 90 min, 120 min). Following the supernatant was centrifuged at 16000 xg for 10 minutes. Add 50 μL supernatant and 75 μL of cytochrome c conjugate to each well. Then, add 50 μL of standard, control, or sample per well. Mix by tapping the plate frame for 1 minute. Cover with the adhesive strip provided. Incubate for 2 hours at room temperature. A plate layout is provided to record standards and samples assayed. Then use the wash buffer washed 5 times with 400 μL. The last wash removes any remaining Wash Buffer by decanting. […] Detection the cytochrome c at absorbance 450 nm using a microplate reader (Sunrise TM, TECAN, Switzerland).

[11] = system: Human non-small cell lung cancer cell A549; assay: ATP release (ENLITEN ATP assay kit, luciferin-luciferase); type: cell-based; settings: 4×IC50 (6.452 μM)
Protocol: FIG. 4 depict that Detection ATP release into supernatant was detect after adminstrated with K1R12-AGP-RW. Human non-small cell lung cancer cell A549 administrated with 6.452 μM (4×IC50) of K1R12-AGP-RW for different time period (30 min, 60 min, 90 min, 120 min). Data are presented as means ±SEM, ***p<0.005, **p<0.01, versus the control group. Data of FIG. 4 were analyzed using the one-way ANOVA and multiple comparison test.
The ENLITEN ATP assay kit (Promega, Madison, WI, FF2000) was used for the detection of ATP release levels. Above all seeds, cancer cells in 96 well with 1×10^5 cell per well, incubated 24 hours. On day 2, replace the medium with the fresh medium containing 4×IC50 K1R12-AGP-RW incubated at different time points (30 min, 60 min, 90 min, 120 min). The supernatant was college and centrifuged 500 xg for 10 minutes to remove debris. Add reconstituted rL/L reagent with the sample and detection immediately, expressed as relative light units (RLU). Serially diluted ATP standard to calculating ATP concentrations generates a regression curve. All reagents in this kit must be returned to room temperature before use.

A549 cell = assay: Killing kinetics (MTT time course); type: cell-based, human; settings: 4×IC50 (6.452 μM) vs 2×IC50 (3.226 μM), within 240 minutes
Protocol: To evaluate the cytotoxic activity and time course against the A549 cell, two different concentrations of K1R12-AGP-RW 2×IC50 (3.226 μM), 4×IC50 (6.452 μM) were used. Cells were seeded as described as MTT assay, after 24 hours culture, cell were incubated with 2×IC50 and 4×IC50 peptide solution for 60 minutes, 120 minutes, 180 minutes, 240 minutes. Further incubated in 10% MTT solution for an additional 4 hours. Remove MTT solution and Dimethyl Sulfoxide (DMSO, D4540, Sigma-Aldrich) was added to formazan crystal solubilization. Using a microplate reader (Sunrise TM, TECAN, Switzerland) detecting the absorbance at 570 nm. The experiments were repeated three times independently.

Substance | IC50 [1] [µM] | anticancer activity spectrum ([2]; human lung cancer and oral squamous cell carcinoma cell lines, MTT) | efficiency to the human lung cancer cell line [2] | IC50 [3] [µM] | IC50 at 24 h [4] [µM] | IC50 [5] [µM] | activity against oral squamous cell carcinoma cell line C9 (in words) [6] | IC50 [6] [µM] | IC50 [7] [µM] | ROS release versus untreated cell [8] | HMGB1 in cell lysate (L) ([9]; 60, 120, 240 minutes, time-dependent) | HMGB1 in supernatant (S) ([9]; after 120 minutes) | HMGB1 in supernatant (S) ([9]; after 240 minutes) | inhibition of A549 compared with the other cancer cells ([1]; MTT) | cytochrome c release ([10]; 120 minutes) | cytochrome c release versus untreated cell ([10]; 240 minutes) | ATP secretion ([11]; after 30 minutes, with time increased) | ATP secretion ([11]; within 30 minutes) | killing kinetics, 4×IC50 versus 2×IC50 (A549 cell)
Ac-KRIVQRIKDFLRAGPIKDFLR-NH2 [SEQ ID NO: 5, Ac-KRIVQRIKDFLR-AGP-IKDFLR-NH2] | 6.26 | broad-spectrum anticancer activity | good efficiency | 11.9 | 13.5 | 11.5 | weak | 25.3 | 10.5 | – | – | – | – | – | – | – | – | – | –
Ac-KRIVQRIKDFLRAGPRRLVRI-NH2 [SEQ ID NO: 7, Ac-KRIVQRIKDFLR-AGP-RRLVRI-NH2] | 3.86 | – | good efficiency | 13.7 | 10.4 | 11.2 | weak | 30.4 | 16.8 | – | – | – | – | – | – | – | – | – | –
Ac-KRIVQRIKDFLRAGPRRWWRW-NH2 [SEQ ID NO: 6, Ac-KRIVQRIKDFLR-AGP-RRWWRW-NH2] | 1.61 | – | – | 10.9 | 11.1 | 4.56 | – | 4.41 | 5.42 | significant increase | reduce | slight increase | complete release into the supernatant(S) | more effective | release at a certain level and keep stabilize | significant increase | reduced | higher level | more rapid kill cancer cells
